The text below walks through data of publication PMC12114750 (Pharmaceuticals, 2025).

Series [1] deals with T1, Butyrylcholinesterase (from equine serum) (Equus caballus, UniProt P81908).
T1 construct: Butyrylcholinesterase (from equine serum); purchased Sigma; host or cells: equine serum
The experiment in a line: biochemical. The format is biochemical. The following applies: for inhibition at 50 µM: read-out: BChE Inhibition (%); for Ki: read-out: BChE Ki. As for the experimental part:
(§1) The inhibitory effects of the compounds on AChE and BChE were assessed by Elman’s method.
(§2) Acetylcholinesterase (from Electrophorus electricus), Butyrylcholinesterase (from equine serum), 5,5′-dithiobis-(2-nitrobenzoic acid) (DTNB), and acetylthiocholine iodide were purchased from Sigma.
Preparation of 50 mM Tris-HCl buffer solutions: Tris(hydroxymethyl)-aminomethane (606 mg) was dissolved in bidestilled water (100 mL) and adjusted with HCl to a pH of 8.0 ± 0.1. Buffers were freshly prepared and stored in the refrigerator. AChE solution 2.005 U/mL: The enzyme (271 U/mg, 0.037 mg) was dissolved in freshly prepared buffer pH 8.0 (5 mL) containing NaN3 (0.98 mg). BChE solution 2.040 U/mL: The enzyme (7.54 U/mg, 1.353 mg) was dissolved in freshly prepared buffer pH 8.0 (5 mL) containing NaN3 (0.98 mg). DTNB solution 3 mM: DTNB (23.8 mg) was dissolved in freshly prepared buffer pH 8.0 (20 mL) containing NaCl (116.8 mg) and MgCl2 (38.0 mg). ATChI solution 15 mM: ATChI (43.4 mg) was dissolved in bidestilled water (10 mL). All solutions were stored in Eppendorf caps in the refrigerator or in the freezer, if necessary. […] The final concentrations for the enzymatic assay were obtained by diluting the stock solution with bidistilled water.
BMG Labtech Spectrostar Omega plate reader working in the slow kinetics mode and measuring the absorbance at a distinct wavelength of λ = 412 nm with center scanning mode was used for the enzymatic studies. In short, a mixture of a DTNB solution (125 µL, 3 mM in 50 mM Tris-HCl buffer, pH 8), enzyme solution (25 µL, 2 U/mL), and compounds solutions (25 µL, 3 different concentrations and water as a blank) was incubated at 30 °C for 20 min. The substrate (25 µL, [ATChI] = 0.9375 mM, 0.625 mM, […], 0.1875 mM) was added to start the enzymatic reaction. The absorbance data were recorded under a controlled temperature of 30 °C for 30 min at 1 min intervals at l = 412 nm. The relative inhibition was determined as the quotient of the slopes (compound divided by blank) of the linear ranges (10 repetitions). Galantamin was used as control substance. To determine the kinetic constants, standard linearization methods were used after applying an internal standard (Dixon/Cornish–Bowden plots) (triplicates).

Series [2] addresses T2, Acetylcholinesterase (from Electrophorus electricus) (Electrophorus electricus, UniProt O42275).
T2 construct: purchased Sigma
The experiment in a line: biochemical. The following applies: read-out: AChE Inhibition (%). The method, then:
as §1, §2
Preparation of 50 mM Tris-HCl buffer solutions: Tris(hydroxymethyl)-aminomethane (606 mg) was dissolved in bidestilled water (100 mL) and adjusted with HCl to a pH of 8.0 ± 0.1. Buffers were freshly prepared and stored in the refrigerator. AChE solution 2.005 U/mL: The enzyme (271 U/mg, 0.037 mg) was dissolved in freshly prepared buffer pH 8.0 (5 mL) containing NaN3 (0.98 mg). BChE solution 2.040 U/mL: The enzyme (7.54 U/mg, 1.353 mg) was dissolved in freshly prepared buffer pH 8.0 (5 mL) containing NaN3 (0.98 mg). DTNB solution 3 mM: DTNB (23.8 mg) was dissolved in freshly prepared buffer pH 8.0 (20 mL) containing NaCl (116.8 mg) and MgCl2 (38.0 mg). […]
BMG Labtech Spectrostar Omega plate reader working in the slow kinetics mode and measuring the absorbance at a distinct wavelength of λ = 412 nm with center scanning mode was used for the enzymatic studies. […] The absorbance data were recorded under a controlled temperature of 30 °C for 30 min at 1 min intervals at l = 412 nm. The relative inhibition was determined as the quotient of the slopes (compound divided by blank) of the linear ranges (10 repetitions). […]

Series [3] concerns HCT-15 (colorectal adenocarcinoma). The experiment in a line: cells. The series is classed as cell-based, human. The following applies: for IC50: Homo sapiens, HCT-15, 24 h, MTT. The method, then:
(§3) Breast adenocarcinoma cells (MCF-7; DSMZ: ACC 115), colon adenocarcinoma cells (HTC-15; DSMZ: CCL-225), and prostate cells (DU-145; ATCC: HRB-81) were cultured in RPMI 1640 medium.
(§4) Cells were seeded at an appropriate density to promote optimal growth, and the culture medium was replaced every 48 h. Once cells reached 80–90% confluence, subculture was performed using 0.25% trypsin-EDTA to dissociate the cells, by 2 min and put inside of chamber during 5 min, according to the protocol provided by the biobanks. The cell lines were maintained at 37 °C in a humidified incubator with 5% CO2 and 95% humidity.
(§5) Cells were seeded in 96-well plates (HepG-2: 2.5 ×10^4 cells; HCT-15: 2.5 × 10^4 cells/mL; MCF-7: 2.5 × 10^4 cells/mL; SH-SY5Y: 5.0 × 10^4 cells/mL; FL83B: 5.0 × 10^4 cell/mL; DU-145: 5.0 × 10^4 cell/mL). Cancer cell lines were exposed to compounds (100 μM) for 24 h and vehicle/controls were included to assess potential solvent interference. Cell viability was assessed using MTT assay. Then, the culture medium was removed and 100 μL of MTT (0.5 mg/mL) was added to each cell. Cells were incubated for 1 h in the dark under the same culture condition (37 °C, 5% CO2, 95% humidity). After incubation, the intracellular formazan crystals were solubilized with 100 μL DMSO and, after […], the absorbance was measured at 570 nm using a microplate reader (Synergy H1). […] Results were expressed as a percentage of control untreated cells and the half-maximal inhibitory concentration (IC50) values were determined using nonlinear regression analysis (GraphPad Prism, 8.1, GraphPad Software, San Diego, CA, USA).

Series [4] concerns MCF-7 (breast adenocarcinoma). Nature of the series: cells. The format is cell-based. The following applies: for IC50: Homo sapiens, MCF7, 24 h, MTT. The method, then:
as §3, §4, §5

The test system of series [5] is DU-145 (prostate adenocarcinoma). The experiment in a line: Cytotoxicity MTT assay, DU-145. The series is classed as cell-based, human. The settings on record: for IC50: 24 h, MTT. As for the experimental part: as §3, §4, §5
A general note: Formazan colour is commonly taken as a measure of viable cells.

Series [6] deals with SH-SY5Y neuroblastoma cell line. The experiment in a line: Cytotoxicity MTT assay, SH-SY5Y. The format is cell-based, human. The settings on record: 24 h. As for the experimental part:
(§6) Hepatocyte cells (FL83B; ATCC: CLR-2390) were cultured in F-12K medium. Human neuroblastoma (SH-SY5Y; ATCC: CRL-2266) cells were cultivated in DMEM/F12 medium. All media were supplemented with fetal bovine serum (10%) (Biowest, Riverside, MO, USA) and 1% antibiotic/antimycotic solution (Biowest, Nuaill’e, France).
as §4, §5

A further series deals with FL83B hepatocytes. The experiment in a line: Cytotoxicity (in vitro hepatotoxicity) MTT assay, FL83B. The settings on record: 24 h, normal murine hepatocytes. The format is cell-based. As for the experimental part:
as §6, §4, §5

Series [7] has as its system differentiated SH-SY5Y neuroblastoma cells. Nature of the series: Neuroprotective capacity on a Parkinson's disease cellular model (6-OHDA, MTT). The settings on record: 6-OHDA 100 μM, 24 h.
Protocol: Only at these non-toxic concentrations (0.01–10 µM; 24 h) were the compounds subsequently tested for their neuroprotective potential in an in vitro PD damage model using differentiated SH-SY5Y neuroblastoma cells. The cells, previously differentiated to obtain a dopaminergic neuronal phenotype [52], were treated with compounds in the presence of the neurotoxin 6-OHDA (100 µM). The cells’ viability was estimated using the 3-(4,5-dimethylthiazol-2-yl)−2,5-diphenyltetrazolium bromide (MTT) assay.
Cells were differentiated to obtain dopaminergic neuronal phenotype according to [52], with slight modifications. […] At the end of the 8th day, the cytotoxicity assay was performed.
Cell viability on SH-SY5Y cells was evaluated after exposure to the compounds at 10 μM for 24 h. […] The cell viability and neuroprotective effects were assessed by a colorimetric assay based on the reduction of tetrazolium salts MTT (VWR, Solon, OH, USA) to blue formazan products, according to [61]. Saponin (Sigma-Aldrich, Steinheim, Germany) was used as a positive control for inducing cellular death. The results were expressed as a percentage of the control (untreated cells).

Read-outs that look alike come from different tables or passages of the source. A value given as a limit tells only on which side of the number the result lay.

T1 sequence (P81908 whole entry): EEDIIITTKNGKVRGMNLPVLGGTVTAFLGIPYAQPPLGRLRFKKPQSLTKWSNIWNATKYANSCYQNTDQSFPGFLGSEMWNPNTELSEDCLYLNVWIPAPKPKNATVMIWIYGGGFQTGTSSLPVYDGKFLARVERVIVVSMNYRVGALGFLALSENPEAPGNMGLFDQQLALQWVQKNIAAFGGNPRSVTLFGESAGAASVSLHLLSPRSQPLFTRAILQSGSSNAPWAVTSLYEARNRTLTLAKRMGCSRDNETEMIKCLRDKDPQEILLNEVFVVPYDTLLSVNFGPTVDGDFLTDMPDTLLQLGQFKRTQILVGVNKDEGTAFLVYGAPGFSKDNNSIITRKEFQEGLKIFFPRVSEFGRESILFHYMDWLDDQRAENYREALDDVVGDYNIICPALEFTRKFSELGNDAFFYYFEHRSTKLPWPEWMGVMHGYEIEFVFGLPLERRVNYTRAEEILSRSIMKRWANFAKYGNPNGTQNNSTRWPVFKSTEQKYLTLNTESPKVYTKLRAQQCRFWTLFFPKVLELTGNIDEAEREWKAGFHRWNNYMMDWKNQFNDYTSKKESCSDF
T2 sequence (O42275 24-633): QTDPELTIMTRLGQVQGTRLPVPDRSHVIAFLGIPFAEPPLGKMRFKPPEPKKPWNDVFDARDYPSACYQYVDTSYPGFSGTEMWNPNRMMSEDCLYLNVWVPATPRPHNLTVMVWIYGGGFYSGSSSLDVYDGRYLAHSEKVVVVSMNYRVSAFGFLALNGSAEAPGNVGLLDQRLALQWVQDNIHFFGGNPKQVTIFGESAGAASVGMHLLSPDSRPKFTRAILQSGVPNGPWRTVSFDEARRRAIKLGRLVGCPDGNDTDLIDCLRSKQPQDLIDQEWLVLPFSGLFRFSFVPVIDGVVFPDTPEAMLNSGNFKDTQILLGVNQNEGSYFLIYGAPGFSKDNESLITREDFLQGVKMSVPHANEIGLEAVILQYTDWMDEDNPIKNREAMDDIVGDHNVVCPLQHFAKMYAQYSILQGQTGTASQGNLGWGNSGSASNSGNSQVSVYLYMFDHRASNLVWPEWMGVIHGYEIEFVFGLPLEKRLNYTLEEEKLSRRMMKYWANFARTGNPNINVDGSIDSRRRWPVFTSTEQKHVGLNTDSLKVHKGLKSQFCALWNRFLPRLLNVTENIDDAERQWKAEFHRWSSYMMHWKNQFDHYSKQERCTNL

What is called inhibition is the drop in the measured response relative to a control, in per cent. With `COc1ccc2c3c1O[C@H]1C[C@@H](O)C=C[C@@]31CCN(C)C2` [Galantamine, reference compound], in series [1], the “BChE type of inhibition” value is listed as “competitive” and the inhibition at 50 µM worked out at 52 ± 0.5%.
By Ki is commonly meant a dissociation constant, usually derived from enzyme kinetics or from competition with a known ligand. The term IC50 denotes the concentration that gives 50% inhibition. Take `CC(=O)OC1C(OCc2ccccc2)C(CNC(=NC(=O)OC(C)(C)C)NC(=O)OC(C)(C)C)OC1n1cnc2c(Cl)ncnc21` [Compound 10, 9-{2-O-acetyl-3-O-benzyl-5-deoxy-5-[N′,N′′-bis(tert-butoxycarbonyl)]guanidino-β-D-xylofuranosyl}-6-chloropurine]: the inhibition at 50 µM worked out at 39.1 ± 0.9% in series [2] and 83.8 ± 1.3% in series [1]. The “BChE inhibitory activity, fold higher than that of galantamine” value in series [1] was “ca. 10 fold”. In series [1], the “BChE type of inhibition” value was “mixed-type”. The Ki is 0.89 ± 0.08 µM in series [1] (competitive component) and 2.96 µM in series [1] (uncompetitive component, listed as N^9 regioisomer). The “BChE Ki′” value in series [1] (uncompetitive component) is 2.96 ± 0.39 µM. Besides, the IC50 in series [3] was more than 100 µM; in series [4], more than 100 µM; in series [5] (Homo sapiens, DU-145) it was 27.6 µM; in series [6] (Homo sapiens, SH-SY5Y), more than 100 µM; in the series on FL83B hepatocytes (Mus musculus, FL83B), 73.7 µM.
With `CC(=O)O[C@@H]1[C@@H](OCc2ccccc2)[C@@H](CN=[N+]=[N-])O[C@H]1n1cnc2c(Cl)ncnc21` [Compound 7, 9-(2-O-Acetyl-5-azido-3-O-benzyl-5-deoxy-β-D-xylofuranosyl)-6-chloropurine], the concentration for half-maximal inhibition (IC50) in series [3] was 72.7 µM; in series [4] it was more than 100 µM; in series [5] (Homo sapiens, DU-145), more than 100 µM; in series [6] (Homo sapiens, SH-SY5Y), more than 100 µM; in the series on FL83B hepatocytes (Mus musculus, FL83B), 22.7 µM.
For the compound `CC(=O)O[C@@H]1[C@@H](OCc2ccccc2)[C@@H](CNC(=NC(=O)OC(C)(C)C)NC(=O)OC(C)(C)C)O[C@H]1n1ccc(=O)[nH]c1=O` [Compound 12, 1-(2-O-Acetyl-3-O-benzyl-5-deoxy-5-[N′,N′′-bis(tert-butoxycarbonyl)]guanidino-β-d-xylofuranosyl)uracil], in series [3], the “cytotoxicity against HCT-15, fold higher (IC50 fold lower) than 5-fluorouracil” value was “ca. 2 fold”. Besides, the half-maximal inhibitory concentration (IC50) is 76 µM in series [3]; more than 100 µM in series [4]; more than 100 µM in series [5] (Homo sapiens, DU-145); more than 100 µM in series [6] (Homo sapiens, SH-SY5Y); more than 100 µM in the series on FL83B hepatocytes (Mus musculus, FL83B).
With `CC(=O)O[C@@H]1[C@@H](OCc2ccccc2)[C@@H](CN=[N+]=[N-])O[C@H]1n1ccc(=O)[nH]c1=O` [Compound 9, 1-(2-O-Acetyl-5-azido-3-O-benzyl-5-deoxy-β-D-xylofuranosyl)uracil], the concentration for half-maximal inhibition (IC50) in series [3] is more than 100 µM; in series [4], more than 100 µM; in series [5] (Homo sapiens, DU-145), more than 100 µM; in series [6] (Homo sapiens, SH-SY5Y), more than 100 µM.
Turning to `CC(=O)O[C@@H]1CN(C(C)=O)C(=O)[C@H](OC(C)=O)[C@H]1OCc1ccccc1` [Compound 3, N-acetyl 2,4-di-O-acetyl-3-O-benzyl-D-xylono-1,5-lactam], the 50% inhibitory concentration (IC50) was more than 100 µM in series [3]; more than 100 µM in series [4]; more than 100 µM in series [5] (Homo sapiens, DU-145); more than 100 µM in series [6] (Homo sapiens, SH-SY5Y).
Turning to `O=c1[nH]cc(F)c(=O)[nH]1` [5-Fluorouracil, reference compound], the IC50 in series [3] was 156 µM; in the series on FL83B hepatocytes (Mus musculus, FL83B) it was more than 100 µM.
With `CC(=O)OC1C(OCc2ccccc2)C(CNC(=NC(=O)OC(C)(C)C)NC(=O)OC(C)(C)C)OC1n1cnc2ncnc(Cl)c21` [Compound 11, 7-(2-O-acetyl-3-O-benzyl-5-deoxy-5-[N′,N′′-bis(tert-butoxycarbonyl)]guanidino-β-D-xylofuranosyl)-6-chloropurine], the values for the inhibition at 50 µM in series [2] and in series [1] were 34.6 ± 1.4% and 65.2 ± 0.9%, respectively. In addition, the “BChE Ki, fold higher than that of the N^9-counterpart” value in series [1] was “ca. 2 fold”. Besides, the “BChE inhibitory activity, fold higher than that of galantamine” value in series [1] is listed as approximately 4 fold. Besides, the “BChE type of inhibition” value in series [1] was “mixed-type”. The Ki in series [1] (competitive component) was 2.34 ± 0.2 µM. The “BChE Ki′” value in series [1] (uncompetitive component) turned out to be 10.6 ± 1.4 µM. Further, the concentration for half-maximal inhibition (IC50) in series [3] came out at 64.1 µM; in series [4], 43.7 µM; in series [5] (Homo sapiens, DU-145), 24.5 µM; in series [6] (Homo sapiens, SH-SY5Y), 12.1 µM; in the series with FL83B hepatocytes (Mus musculus, FL83B) it was 24.1 µM. In series [4], the “cytotoxicity in MCF-7 cells, fold lower than tamoxifen” value is on record as 1.6 fold. The “effect against DU-145 cells, fold higher than cisplatin” value in series [5] is 4 fold.
In the case of `NCCc1cc(O)c(O)cc1O` [Compound 6-OHDA, 6-hydroxydopamine], in series [7], the “reduction of differentiated SH-SY5Y cells' viability” value turned out to be 40%. For the same compound, the “viable cells, 6-OHDA alone” value in series [7] (MTT, % of control) was 61.3 ± 1.4 % of viable cells.
With `CC(=O)O[C@@H]1[C@@H](OCc2ccccc2)[C@@H](CN=[N+]=[N-])O[C@H]1n1cnc2ncnc(Cl)c21` [Compound 8, 7-(2-O-acetyl-5-azido-3-O-benzyl-5-deoxy-β-D-xylofuranosyl)-6-chloropurine], the IC50 is more than 100 µM in series [3]; more than 100 µM in series [4]; more than 100 µM in series [5] (Homo sapiens, DU-145); more than 100 µM in series [6] (Homo sapiens, SH-SY5Y).
Regarding `N.N.[Cl][Pt][Cl]` [Cisplatin, reference compound], the concentration for half-maximal inhibition (IC50) was more than 100 µM in series [5], 13.9 µM in series [6] and 25.7 µM in the series on FL83B hepatocytes.
